Read-outs that look alike come from different tables or passages of the source.
Experiments:
Erk1 = molecular target: T1, Erk1 (Homo sapiens, UniProt P27361); assay: Protein Mass Modification Assay (intact protein MALDI, 60 min, 10-fold excess of compound); assay type: binding
T1 construct: purchased Millipore 14-439
Summary of the method: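 Percent covalent modification comes from the intact-protein MALDI centroid mass shift, treated versus control, divided by compound MW. Before analysis, human Erk1 was exposed to compound at 10-fold excess over protein for 60 min at room temperature.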

MEK1 activated ERK1 = molecular target: T2, MEK1 activated ERK1 (Homo sapiens, UniProt P27361); assay: Omnia continuous-read kinase assay for potency against MEK1 activated ERK1; assay type: biochemical
T2 construct: purchased Millipore (Billerica, Mass.) 14-439-K
Summary of the method: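 Apparent IC50 came from initial reaction slopes (RFU vs time) plotted against log inhibitor with a variable-slope fit. Reactions were started with ERK1 (4 nM final) added to 50 μM ATP, roughly at its appKM, and 10 μM Sox-conjugated ST17 peptide in 20 mM Tris pH 7.5, 5 mM MgCl2. Fluorescence was monitored every 71 seconds.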

[1] = system: ERK1/2 phosphorylation of p90RSK in A375 cells; assay: Detection of total and phosphor-RSK by MSD ELISA (A375); assay type: cell-based; conditions: Homo sapiens, A-375, read-out: ERK1/ERK2 PRSK A375 EC50
Summary of the method: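 Electrochemiluminescent MSD ELISA: common RSK capture antibody, with pRSK Ser380 or total RSK detection antibodies plus SulfoTag secondaries. Samples were lysates of A375 cells exposed to compound for 2 h at 37° C after overnight culture in 0.1% FBS DMEM.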

T2 sequence (P27361 whole entry): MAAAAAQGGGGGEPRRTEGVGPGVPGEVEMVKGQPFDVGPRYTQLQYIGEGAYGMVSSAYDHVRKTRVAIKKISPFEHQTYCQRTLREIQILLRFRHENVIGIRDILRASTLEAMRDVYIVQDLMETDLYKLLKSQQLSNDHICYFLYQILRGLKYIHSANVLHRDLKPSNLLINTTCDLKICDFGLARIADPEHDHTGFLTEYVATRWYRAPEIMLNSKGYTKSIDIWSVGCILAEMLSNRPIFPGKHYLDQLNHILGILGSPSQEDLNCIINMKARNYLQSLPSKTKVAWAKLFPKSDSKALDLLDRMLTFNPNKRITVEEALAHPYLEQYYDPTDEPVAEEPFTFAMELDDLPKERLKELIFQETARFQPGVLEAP
T1 sequence (P27361 whole entry): as above

## C=CC(=O)Nc1cc(C)ccc1Nc1nc(Nc2cc(C(C)=O)ccc2C)ncc1C(F)(F)F [Compound I-84, N-(2-((2-((5-Acetyl-2-methylphenyl)amino)-5-(trifluoromethyl)pyrimidin-4-yl)amino)-5-methylphenyl)acrylamide]
Erk1
  ERK1 Mass Mod (%): E (key: E: a mass modification of ≧70%; F: a mass modification of 31-69%; G: a mass modification ≦30%)
MEK1 activated ERK1; MEK1 activated ERK1, ATP at KM, read-out: ERK1 Omnia WT ATP KM IC50
  IC50: 101 to 500 nM

## C=CC(=O)Nc1cc(C)ccc1Nc1nc(Nc2nc(OC)ncc2Cl)ncc1C(F)(F)F [Compound I-344, N-(2-((2-((5-chloro-2-methoxypyrimidin-4-yl)amino)-5-(trifluoromethyl)pyrimidin-4-yl)amino)-5-methylphenyl)acrylamide]
Erk1
  ERK1 Mass Mod (%): E (a mass modification of ≧70%)
[1]
  EC50: 101 to 500 nM

## C=CC(=O)Nc1cc(CN2CCN(C(=O)c3ccccn3)CC2)ccc1Nc1nc(Nc2cc(OC)ncc2C)ncc1C(F)(F)F [Compound I-388, N-(2-((2-((2-methoxy-5-methylpyridin-4-yl)amino)-5-(trifluoromethyl)pyrimidin-4-yl)amino)-5-((4-picolinoylpiperazin-1-yl)methyl)phenyl)acrylamide]
MEK1 activated ERK1; ATP at KM, WT
  IC50: 101 to 500 nM
[1]
  EC50: < 100 nM

## C=CC(=O)Nc1cc(CN2CCN(C(=O)c3ccccn3)CC2)ccc1Nc1nc(Nc2nc(OC)ncc2C)ncc1C(F)(F)F [Compound I-391, N-(2-((2-((2-methoxy-5-methylpyrimidin-4-yl)amino)-5-(trifluoromethyl)pyrimidin-4-yl)amino)-5-((4-picolinoylpiperazin-1-yl)methyl)phenyl)acrylamide]
MEK1 activated ERK1; ATP at KM, WT
  IC50: 101 to 500 nM
[1]
  EC50: > 1000 nM

## C=CC(=O)Nc1cc(OC(F)(F)F)ccc1Nc1nc(Nc2cc(OC)ncc2C)ncc1C(F)(F)F [Compound I-407, N-(2-((2-((2-methoxy-5-methylpyridin-4-yl)amino)-5-(trifluoromethyl)pyrimidin-4-yl)amino)-5-(trifluoromethoxy)phenyl)acrylamide]
MEK1 activated ERK1; ATP at KM, WT
  IC50: 101 to 500 nM
[1]
  EC50: 101 to 500 nM

## C=CC(=O)Nc1cc(C)ccc1Nc1nc(Nc2cc(OC)ncc2CC)ncc1C(F)(F)F [Compound I-408, N-(2-((2-((5-ethyl-2-methoxypyridin-4-yl)amino)-5-(trifluoromethyl)pyrimidin-4-yl)amino)-5-methylphenyl)acrylamide]
MEK1 activated ERK1; ATP at KM, WT
  IC50: 101 to 500 nM
[1]
  EC50: 101 to 500 nM

## C=CC(=O)Nc1cc(O[C@H](C)C(=O)N2CCN(C(C)=O)CC2)ccc1Nc1nc(Nc2cc(OC)ncc2C)ncc1C(F)(F)F [Compound I-409, (R)—N-(5-((1-(4-acetylpiperazin-1-yl)-1-oxopropan-2-yl)oxy)-2-((2-((2-methoxy-5-methylpyridin-4-yl)amino)-5-(trifluoromethyl)pyrimidin-4-yl)amino)phenyl)acrylamide]
MEK1 activated ERK1; ATP at KM, WT
  IC50: < 100 nM
[1]
  EC50: > 1000 nM

## C=CC(=O)Nc1cc(O[C@H](C)C(=O)N2CCN(S(C)(=O)=O)CC2)ccc1Nc1nc(Nc2cc(OC)ncc2C)ncc1C(F)(F)F [Compound I-410, (R)—N-(2-((2-((2-methoxy-5-methylpyridin-4-yl)amino)-5-(trifluoromethyl)pyrimidin-4-yl)amino)-5-((1-(4-(methylsulfonyl)piperazin-1-yl)-1-oxopropan-2-yl)oxy)phenyl)acrylamide]
MEK1 activated ERK1; ATP at KM, WT
  IC50: < 100 nM
[1]
  EC50: 101 to 500 nM

## C=CC(=O)Nc1c(Nc2nc(Nc3cc(OC)ncc3C)ncc2OC)cccc1OCc1nccs1 [Compound I-411, N-(2-((5-methoxy-2-((2-methoxy-5-methylpyridin-4-yl)amino)pyrimidin-4-yl)amino)-6-(thiazol-2-ylmethoxy)phenyl)acrylamide]
MEK1 activated ERK1; ATP at KM, WT
  IC50: > 1000 nM
[1]
  EC50: > 1000 nM

## C=CC(=O)Nc1cc(O[C@@H](C)C(N)=O)ccc1Nc1nc(Nc2cc(OC)ncc2C)ncc1C(F)(F)F [Compound I-412, (S)—N-(5-((1-amino-1-oxopropan-2-yl)oxy)-2-((2-((2-methoxy-5-methylpyridin-4-yl)amino)-5-(trifluoromethyl)pyrimidin-4-yl)amino)phenyl)acrylamide]
MEK1 activated ERK1; ATP at KM, WT
  IC50: < 100 nM
[1]
  EC50: < 100 nM

## C=CC(=O)Nc1cc(O[C@H](C)C(N)=O)ccc1Nc1nc(Nc2cc(OC)ncc2C)ncc1C(F)(F)F [Compound I-413, (R)—N-(5-((1-amino-1-oxopropan-2-yl)oxy)-2-((2-((2-methoxy-5-methylpyridin-4-yl)amino)-5-(trifluoromethyl)pyrimidin-4-yl)amino)phenyl)acrylamide]
MEK1 activated ERK1; ATP at KM, WT
  IC50: < 100 nM
[1]
  EC50: < 100 nM

## C=CC(=O)Nc1cc(OCC(=O)N2CCN(C(C)=O)CC2)ccc1Nc1nc(Nc2cc(OC)ncc2OC)ncc1C(F)(F)F [Compound I-415, N-(5-(2-(4-acetylpiperazin-1-yl)-2-oxoethoxy)-2-((2-((2,5-dimethoxypyridin-4-yl)amino)-5-(trifluoromethyl)pyrimidin-4-yl)amino)phenyl)acrylamide]
MEK1 activated ERK1; ATP at KM, WT
  IC50: < 100 nM
[1]
  EC50: 501 to 999 nM

## C=CC(=O)Nc1cc(OCCN2CCN(C(C)=O)CC2)ccc1Nc1nc(Nc2cc(OC)ncc2C)ncc1C(F)(F)F [Compound I-416, N-(5-(2-(4-acetylpiperazin-1-yl)ethoxy)-2-((2-((2-methoxy-5-methylpyridin-4-yl)amino)-5-(trifluoromethyl)pyrimidin-4-yl)amino)phenyl)acrylamide]
MEK1 activated ERK1; ATP at KM, WT
  IC50: < 100 nM
[1]
  EC50: 101 to 500 nM

## C=CC(=O)Nc1cc(C)ccc1Nc1nc(NCC2COC2)ncc1C(F)(F)F [Compound I-417, N-(5-methyl-2-((2-((oxetan-3-ylmethyl)amino)-5-(trifluoromethyl)pyrimidin-4-yl)amino)phenyl)acrylamide]
MEK1 activated ERK1; ATP at KM, WT
  IC50: > 1000 nM
[1]
  EC50: > 1000 nM

## C=CC(=O)Nc1cc(C)ccc1Nc1nc(Nc2cc(C(=O)OC)nn2C)ncc1C(F)(F)F [Compound I-418, Methyl 5-((4-((2-acrylamido-4-methylphenyl)amino)-5-(trifluoromethyl)pyrimidin-2-yl)amino)-1-methyl-1H-pyrazole-3-carboxylate]
MEK1 activated ERK1; ATP at KM, WT
  IC50: 101 to 500 nM
[1]
  EC50: 501 to 999 nM

## C=CC(=O)Nc1cc(C)ccc1Nc1nc(Nc2cc(C(F)(F)F)nn2C)ncc1C(F)(F)F [Compound I-419, N-(5-methyl-2-((2-((1-methyl-3-(trifluoromethyl)-1H-pyrazol-5-yl)amino)-5-(trifluoromethyl)pyrimidin-4-yl)amino)phenyl)acrylamide]
MEK1 activated ERK1; ATP at KM, WT
  IC50: > 1000 nM
[1]
  EC50: > 1000 nM

## C=CC(=O)Nc1cc(C)ccc1Nc1nc(NC2COC2)ncc1C(F)(F)F [Compound I-420, N-(5-methyl-2-((2-(oxetan-3-ylamino)-5-(trifluoromethyl)pyrimidin-4-yl)amino)phenyl)acrylamide]
MEK1 activated ERK1; ATP at KM, WT
  IC50: > 1000 nM
[1]
  EC50: > 1000 nM

## C=CC(=O)Nc1cc(CN2CCN(C(C)=O)C[C@@H]2C)ccc1Nc1nc(Nc2cc(OC)ncc2C)ncc1C(F)(F)F [Compound I-421, (S)—N-(5-((4-acetyl-2-methylpiperazin-1-yl)methyl)-2-((2-((2-methoxy-5-methylpyridin-4-yl)amino)-5-(trifluoromethyl)pyrimidin-4-yl)amino)phenyl)acrylamide]
MEK1 activated ERK1; ATP at KM, WT
  IC50: < 100 nM
[1]
  EC50: 101 to 500 nM

## C=CC(=O)Nc1cc(CN2CCN(C(C)=O)C[C@H]2C)ccc1Nc1nc(Nc2cc(OC)ncc2C)ncc1C(F)(F)F [Compound I-422, (R)—N-(5-((4-acetyl-2-methylpiperazin-1-yl)methyl)-2-((2-((2-methoxy-5-methylpyridin-4-yl)amino)-5-(trifluoromethyl)pyrimidin-4-yl)amino)phenyl)acrylamide]
MEK1 activated ERK1; ATP at KM, WT
  IC50: < 100 nM
[1]
  EC50: 101 to 500 nM

## C=CC(=O)Nc1cc(C)ccc1Nc1nc(Nc2cc(C(N)=O)nn2C)ncc1C(F)(F)F [Compound I-423, 5-((4-((2-acrylamido-4-methylphenyl)amino)-5-(trifluoromethyl)pyrimidin-2-yl)amino)-1-methyl-1H-pyrazole-3-carboxamide]
MEK1 activated ERK1; ATP at KM, WT
  IC50: > 1000 nM
[1]
  EC50: > 1000 nM

## C=CC(=O)Nc1cc(C)ccc1Nc1nc(Nc2cc(C(=O)NC)nn2C)ncc1C(F)(F)F [Compound I-424, 5-((4-((2-acrylamido-4-methylphenyl)amino)-5-(trifluoromethyl)pyrimidin-2-yl)amino)-N,1-dimethyl-1H-pyrazole-3-carboxamide]
MEK1 activated ERK1; ATP at KM, WT
  IC50: > 1000 nM
[1]
  EC50: 501 to 999 nM

## C=CC(=O)Nc1cc(O[C@@H](C)C(=O)N2CCN(C(C)=O)CC2)ccc1Nc1nc(Nc2cc(OC)ncc2C)ncc1C(F)(F)F [Compound I-425, (S)—N-(5-((1-(4-acetylpiperazin-1-yl)-1-oxopropan-2-yl)oxy)-2-((2-((2-methoxy-5-methylpyridin-4-yl)amino)-5-(trifluoromethyl)pyrimidin-4-yl)amino)phenyl)acrylamide]
MEK1 activated ERK1; ATP at KM, WT
  IC50: 101 to 500 nM
[1]
  EC50: 501 to 999 nM

## C=CC(=O)Nc1cc(O[C@@H](C)C(=O)N2CCN(S(C)(=O)=O)CC2)ccc1Nc1nc(Nc2cc(OC)ncc2C)ncc1C(F)(F)F [Compound I-426, (S)—N-(2-((2-((2-methoxy-5-methylpyridin-4-yl)amino)-5-(trifluoromethyl)pyrimidin-4-yl)amino)-5-((1-(4-(methylsulfonyl)piperazin-1-yl)-1-oxopropan-2-yl)oxy)phenyl)acrylamide]
MEK1 activated ERK1; ATP at KM, WT
  IC50: 501 to 999 nM
[1]
  EC50: 101 to 500 nM

## C=CC(=O)Nc1cc(CCc2cnn(C)c2)ccc1Nc1nc(Nc2cc(OC)ncc2C)ncc1C(F)(F)F [Compound I-427, N-(2-((2-((2-methoxy-5-methylpyridin-4-yl)amino)-5-(trifluoromethyl)pyrimidin-4-yl)amino)-5-(2-(1-methyl-1H-pyrazol-4-yl)ethyl)phenyl)acrylamide]
MEK1 activated ERK1; ATP at KM, WT
  IC50: 101 to 500 nM
[1]
  EC50: 101 to 500 nM

— patent US9561228B2 (Celgene Avilomics Research, Inc., priority 2013, dated 2017)
